Measured values from US7569517B2, “4-biphenyl-substituted pyrazolidin-3 5-diones pesticide agent and/or microbicide and/or herbicide” (Bayer CropScience AG, priority 2003, dated 2009).

Tests used:
Format in all cases: in vivo
[1] = tested on: green peach aphid (Myzus persicae); assay: Myzus test (spray treatment) (Example B); details: sprayed Chinese cabbage discs
Method: Myzus Test (Spray Treatment)
(§1) • Solvents: 78 parts by weight of acetone • 1.5 parts by weight of dimethylformamide • Emulsifier: 0.5 part by weight of alkylaryl polyglycol ether
To produce a suitable preparation of active compound, 1 part by weight of active compound is mixed with the stated amounts of solvent and emulsifier, and the concentrate is diluted with emulsifier-containing water to the desired concentration.
Discs of Chinese cabbage (Brassica pekinensis) which are infested by all stages of the green peach aphid (Myzus persicae) are sprayed with a preparation of active compound of the desired concentration.
After the desired period of time, the activity in % is determined. 100% means that all aphids have been killed; 0% means that none of the aphids have been killed.

[2] = tested on: larvae of the mustard beetle (Phaedon cochleariae); assay: Phaedon test (spray treatment) (Example C); details: sprayed Chinese cabbage discs
Method: Phaedon Test (Spray Treatment)
as §1
(§2) To produce a suitable preparation of active compound, 1 part by weight of active compound is mixed with the stated amounts of solvents and emulsifier, and the concentrate is diluted with emulsifier-containing water to the desired concentration.
After the desired period of time, the activity in % is determined. 100% means that all beetle larvae have been killed; 0% means that none of the beetle larvae have been killed.

[3] = tested on: greenhouse red spider mite (Tetranychus urticae); assay: Tetranychus test (OP-resistance/spray treatment) (Example E); details: sprayed bean leaf discs
Method: Tetranychus Test (OP-resistance/Spray Treatment)
as §1
To prepare a suitable preparation of active compound, 1 part by weight of active compound is mixed with the stated amounts of solvents and emulsifier, and the concentrate is diluted with emulsifier-containing water to the desired concentration.
Discs of bean leaves (Phaseolus vulgaris) which are infested by all stages of the greenhouse red spider mite (Tetranychus urticae) are sprayed with a preparation of active compound of the desired concentration.
After the desired period of time, the activity in % is determined. 100% means that all spider mites have been killed; 0% means that none of the spider mites have been killed.

[4] = tested on: caterpillars of the army worm (Spodoptera frugiperda); assay: Spodoptera frugiperda test (spray treatment) (Example D); details: sprayed maize leaf discs
Method: Spodoptera Frugiperda Test (Spray Treatment)
as §1, §2
Discs of maize leaves (Zea mays) are sprayed with a preparation of active compound of the desired concentration and, after they have dried, populated with caterpillars of the army worm (Spodoptera frugiperda).
After the desired period of time, the activity in % is determined. 100% means that all caterpillars have been killed; 0% means that none of the caterpillars have been killed.

Structure (SMILES): Cc1ccc(-c2ccccc2F)cc1C1(Cl)C(=O)N2CCCCN2C1=O [Ex. I-1-7]
- Kill rate in % after 5d ([1]; 500 g/ha): 90%
- Kill rate in % after 7d ([2]; 500 g/ha): 100%

Structure (SMILES): Cc1ccc(-c2ccc(Oc3ccccc3)cc2)cc1C1(Cl)C(=O)N2CCOCCN2C1=O [Ex. I-2-29]
- Kill rate in % after 5d ([1]; 500 g/ha): 100%

Structure (SMILES): Cc1ccc(-c2cc(F)ccc2F)cc1C1(Cl)C(=O)N2CCOCCN2C1=O [Ex. I-2-17]
- Kill rate in % after 7d ([2]; 500 g/ha): 100%

Structure (SMILES): Cc1ccc(-c2cccc(Cl)c2Cl)cc1C1(Cl)C(=O)N2CCCCN2C1=O [Ex. I-1-12]
- Kill rate in % after 5d ([3]; 500 g/ha): 90%

Structure (SMILES): Cc1ccc(-c2ccc(Cl)cc2)cc1C1(Cl)C(=O)N2CCCCN2C1=O [Ex. I-1-6]
- Kill rate in % after 7d ([2]; 500 g/ha): 100%
- Kill rate in % after 7d ([4]; 500 g/ha): 100%

Structure (SMILES): Cc1ccc(-c2cc(F)ccc2F)cc1C1(Cl)C(=O)N2CCCCN2C1=O [Ex. I-1-18]
- Kill rate in % after 7d ([2]; 500 g/ha): 100%

Structure (SMILES): COc1ccc(Cl)cc1-c1ccc(C)c(C2(Cl)C(=O)N3CCCCN3C2=O)c1 [Ex. I-1-34]
- Kill rate in % after 5d ([1]; 500 g/ha): 100%

Structure (SMILES): Cc1ccc(-c2ccccc2C(F)(F)F)cc1C1(Cl)C(=O)N2CCOCCN2C1=O [Ex. I-2-19]
- Kill rate in % after 5d ([3]; 500 g/ha): 90%

Structure (SMILES): Cc1ccc(-c2ccccc2)cc1C1(Cl)C(=O)N2CCOCCN2C1=O [Ex. I-2-1]
- Kill rate in % after 7d ([2]; 500 g/ha): 100%

Structure (SMILES): Cc1ccc(-c2ccc(F)c(Cl)c2)cc1C1(Cl)C(=O)N2CCCCN2C1=O [Ex. I-1-19]
- Kill rate in % after 7d ([4]; 500 g/ha): 100%

Structure (SMILES): Cc1ccc(-c2ccc(C(F)(F)F)cc2)cc1C1(Cl)C(=O)N2CCCCN2C1=O [Ex. I-1-22]
- Kill rate in % after 7d ([4]; 100 g/ha): 100%

Structure (SMILES): COc1ccc(Cl)c(-c2ccc(C)c(C3(Cl)C(=O)N4CCOCCN4C3=O)c2)c1 [Ex. I-2-23]
- Kill rate in % after 5d ([1]; 500 g/ha): 100%

Structure (SMILES): Cc1cccc(-c2ccc(C)c(C3(Cl)C(=O)N4CCOCCN4C3=O)c2)c1 [Ex. I-2-9]
- Kill rate in % after 5d ([3]; 500 g/ha): 90%

Structure (SMILES): Cc1ccc(-c2ccc(Cl)cc2Cl)cc1C1(Cl)C(=O)N2CCOCCN2C1=O [Ex. I-2-12]
- Kill rate in % after 7d ([2]; 500 g/ha): 100%

Structure (SMILES): Cc1ccc(-c2ccc(Cl)cc2)cc1C1(Cl)C(=O)N2CCOCCN2C1=O [Ex. I-2-4]
- Kill rate in % after 7d ([4]; 500 g/ha): 100%

Structure (SMILES): Cc1ccc(-c2ccc(F)cc2F)cc1C1(Cl)C(=O)N2CCOCCN2C1=O [Ex. I-2-16]
- Kill rate in % after 5d ([1]; 500 g/ha): 100%
- Kill rate in % after 7d ([4]; 500 g/ha): 100%

Structure (SMILES): Cc1ccc(-c2ccc(F)cc2)cc1C1(Cl)C(=O)N2CCCCN2C1=O [Ex. I-1-1]
- Kill rate in % after 5d ([1]; 100 g/ha): 100%
- Kill rate in % after 7d ([2]; 100 g/ha): 100%

Structure (SMILES): Cc1ccc(-c2cc(Cl)ccc2Cl)cc1C1(Cl)C(=O)N2CCCCN2C1=O [Ex. I-1-14]
- Kill rate in % after 7d ([2]; 500 g/ha): 100%
- Kill rate in % after 5d ([3]; 500 g/ha): 100%

Structure (SMILES): Cc1ccc(-c2ccc(F)c(Cl)c2)cc1C1(Cl)C(=O)N2CCOCCN2C1=O [Ex. I-2-18]
- Kill rate in % after 5d ([1]; 500 g/ha): 90%
- Kill rate in % after 7d ([4]; 500 g/ha): 100%

Structure (SMILES): Cc1ccc(-c2cccc(Cl)c2)cc1C1(Cl)C(=O)N2CCOCCN2C1=O [Ex. I-2-3]
- Kill rate in % after 7d ([4]; 500 g/ha): 100%

Structure (SMILES): Cc1ccc(-c2ccc(F)cc2)cc1C1(Cl)C(=O)N2CCOCCN2C1=O [Ex. I-2-7]
- Kill rate in % after 7d ([4]; 100 g/ha): 100%
- Kill rate in % after 5d ([3]; 100 g/ha): 90%

Structure (SMILES): Cc1ccc(-c2cccc(F)c2)cc1C1(Cl)C(=O)N2CCCCN2C1=O [Ex. I-1-8]
- Kill rate in % after 7d ([4]; 500 g/ha): 100%
- Kill rate in % after 5d ([3]; 500 g/ha): 100%

Structure (SMILES): Cc1ccc(-c2ccc(Oc3ccc(Cl)cc3)cc2)cc1C1(Cl)C(=O)N2CCOCCN2C1=O [Ex. I-2-34]
- Kill rate in % after 7d ([2]; 500 g/ha): 100%

Structure (SMILES): COc1ccccc1-c1ccc(C)c(C2(Cl)C(=O)N3CCOCCN3C2=O)c1 [Ex. I-2-22]
- Kill rate in % after 5d ([3]; 100 g/ha): 90%

Structure (SMILES): Cc1ccc(-c2ccc(Cl)c(Cl)c2)cc1C1(Cl)C(=O)N2CCOCCN2C1=O [Ex. I-2-14]
- Kill rate in % after 7d ([2]; 500 g/ha): 100%

Structure (SMILES): Cc1ccc(-c2ccccc2)cc1C1(Cl)C(=O)N2CCCCN2C1=O [Ex. I-1-3]
- Kill rate in % after 5d ([3]; 500 g/ha): 100%

Structure (SMILES): Cc1ccc(-c2ccc(C(F)(F)F)cc2)cc1C1(Cl)C(=O)N2CCOCCN2C1=O [Ex. I-2-21]
- Kill rate in % after 7d ([4]; 500 g/ha): 100%

Structure (SMILES): Cc1ccc(-c2ccc(F)cc2F)cc1C1(Cl)C(=O)N2CCCCN2C1=O [Ex. I-1-17]
- Kill rate in % after 5d ([1]; 500 g/ha): 90%
- Kill rate in % after 7d ([2]; 500 g/ha): 100%

Structure (SMILES): Cc1ccc(-c2cccc([N+](=O)[O-])c2)cc1C1(Cl)C(=O)N2CCOCCN2C1=O [Ex. I-2-27]
- Kill rate in % after 7d ([2]; 500 g/ha): 100%
- Kill rate in % after 5d ([3]; 100 g/ha): 100%

Structure (SMILES): Cc1ccc(-c2cccc(C(F)(F)F)c2)cc1C1(Cl)C(=O)N2CCOCCN2C1=O [Ex. I-2-20]
- Kill rate in % after 7d ([2]; 500 g/ha): 100%

Structure (SMILES): Cc1ccc(-c2ccc(OC(F)(F)F)cc2)cc1C1(Cl)C(=O)N2CCCCN2C1=O [Ex. I-1-29]
- Kill rate in % after 7d ([2]; 500 g/ha): 100%
- Kill rate in % after 5d ([3]; 500 g/ha): 100%

Structure (SMILES): Cc1cccc(-c2ccc(C)c(C3(Cl)C(=O)N4CCCCN4C3=O)c2)c1 [Ex. I-1-10]
- Kill rate in % after 7d ([2]; 500 g/ha): 100%
- Kill rate in % after 5d ([3]; 500 g/ha): 100%

Structure (SMILES): Cc1ccc(-c2ccc(OC(F)(F)F)cc2)cc1C1(Cl)C(=O)N2CCOCCN2C1=O [Ex. I-2-28]
- Kill rate in % after 5d ([3]; 500 g/ha): 90%

Structure (SMILES): Cc1ccc(-c2ccc(Cl)c(Cl)c2)cc1C1(Cl)C(=O)N2CCCCN2C1=O [Ex. I-1-15]
- Kill rate in % after 7d ([4]; 500 g/ha): 100%

Structure (SMILES): Cc1ccc(-c2ccc(Cl)cc2Cl)cc1C1(Cl)C(=O)N2CCCCN2C1=O [Ex. I-1-13]
- Kill rate in % after 5d ([1]; 500 g/ha): 90%
- Kill rate in % after 5d ([3]; 500 g/ha): 100%

Structure (SMILES): COc1ccc(-c2ccc(C)c(C3(Cl)C(=O)N4CCOCCN4C3=O)c2)cc1Cl [Ex. I-2-35]
- Kill rate in % after 5d ([1]; 500 g/ha): 100%

Structure (SMILES): Cc1ccc(-c2cc(Cl)cc(Cl)c2)cc1C1(Cl)C(=O)N2CCOCCN2C1=O [Ex. I-2-15]
- Kill rate in % after 7d ([2]; 500 g/ha): 100%

Structure (SMILES): Cc1ccc(-c2cc(Cl)ccc2Cl)cc1C1(Cl)C(=O)N2CCOCCN2C1=O [Ex. I-2-13]
- Kill rate in % after 7d ([4]; 500 g/ha): 100%

Structure (SMILES): Cc1ccc(-c2ccccc2Cl)cc1C1(Cl)C(=O)N2CCOCCN2C1=O [Ex. I-2-2]
- Kill rate in % after 7d ([4]; 500 g/ha): 100%

Structure (SMILES): Cc1ccc(-c2ccc(C)c(C3(Cl)C(=O)N4CCCCN4C3=O)c2)cc1 [Ex. I-1-11]
- Kill rate in % after 7d ([2]; 500 g/ha): 100%

Structure (SMILES): Cc1ccc(-c2ccccc2F)cc1C1(Cl)C(=O)N2CCOCCN2C1=O [Ex. I-2-5]
- Kill rate in % after 5d ([3]; 500 g/ha): 90%

Structure (SMILES): Cc1ccc(-c2ccc(C)c(C3(Cl)C(=O)N4CCOCCN4C3=O)c2)cc1 [Ex. I-2-10]
- Kill rate in % after 7d ([2]; 500 g/ha): 100%

Structure (SMILES): Cc1ccc(-c2cccc(F)c2)cc1C1(Cl)C(=O)N2CCOCCN2C1=O [Ex. I-2-6]
- Kill rate in % after 5d ([1]; 500 g/ha): 90%
- Kill rate in % after 7d ([2]; 500 g/ha): 100%
